According to BindingDB's records for doi:10.1021/acs.jmedchem.0c01160 (University of Groningen, 2020):

Biological target: T1, Macrophage migration inhibitory factor (Homo sapiens, UniProt P14174)
T1 sequence (P14174 whole entry): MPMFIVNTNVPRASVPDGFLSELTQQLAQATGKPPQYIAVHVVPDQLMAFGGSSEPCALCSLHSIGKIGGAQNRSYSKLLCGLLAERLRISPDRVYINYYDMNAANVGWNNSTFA
Test: Inhibition of C-terminal His-tagged recombinant human MIF expressed in Escherichia coli BL21 (DE3) using 4-HPP as substrate preincubated for 10 mins followed by substrate addition by UV absorption spectrum analysis

**Q.** For `O=C(O)c1ccc(-c2ccc(-c3cc4ccc(O)cc4oc3=O)cc2)cc1`, which IC50 is on record?
**A.** 71 nM
